# Reference: patent publication US7314858B2, “Retrocyclins: antiviral and antimicrobial peptides” (priority 2001, dated 2008)
# Numbering of substitutions follows the chain as printed. “Also recorded” adds a separate entry of the source.
# B1: RTD-2: rhesus circular minidefensin, homodimer of two identical nonapeptide elements (SEQ ID NO:17) (peptide, listed as Macaca mulatta)
# chain: MRTFALLTAMLLLVALHAQAEARQARADEAAAQQQPGADDQGMAHSFTRPENAALPLSESARGLRCLCRRGVCQLL
# modifications: cyclic homodimer of two nonapeptides; SIGNAL (1)...(20)
# B2: RTD-3: rhesus circular minidefensin, homodimer of two identical nonapeptide elements (SEQ ID NO:15) (peptide, listed as Macaca mulatta)
# chain: B1 chain with A38T, R49W, R62K, L67I, R69T, V72F, Q74R
# modifications: cyclic homodimer of two nonapeptides; SIGNAL (1)...(20)
# Key:
# [1] = tested on: HIV-1 strain JR-CSF; assay: HIV-1 JR-CSF infection of CD4+ PBMC, p24 antigen ELISA; assay type: cell-based; details: JR-CSF (R5), peptide 10-20 μg/ml
# Experimental: FIG. 5A-C. Anti-HIV-1 activity of retrocyclin. Two strains of HIV-1 and two types of human target cells were used. The IIIB strain is T-cell tropic (X4) and utilizes the CXCR4 co-receptor for entry; the JR-CSF strain is M-tropic (R5) and uses CCR5 for entry. PBMC signifies CD4^+-selected peripheral blood mononuclear cells. […] (A) Two concentrations of retrocyclin (2 μg/ml, 20 μg/ml), 20 μg/ml of the Rhesus circular defensin “RTD-1”, and 20 μg/ml of a horseshoe crab-derived peptide “T140”, reported to only prevent X4 infections, were tested in antiviral assays of against strain IIIB in H9 cells (n=2-6 per peptide; error bars indicate SEM). (B) To confirm our results with primary human cells, similar assays were performed utilizing IIIB virus and CD4^+ PBMC or (C) JR-CSF virus and CD4^+ PBMC. Peptides were not cytotoxic at indicated concentrations, measured by trypan blue exclusion. Average of duplicate experiments are reported for studies with PBMCs. Assay sensitivity=10 pg/ml.
# (§1) Either HIV-1-permissive H9 cells were used as targets, or primary CD4^+ lymphocytes from HIV-1-seronegative donors generated from freshly purified peripheral blood mononuclear cells (PBMC) stimulated with a CD3-CD8 bispecific monoclonal antibody. After approximately 7 days, when 98% of these cells co-expressed CD3 and CD4, they were infected with HIV-1 with or without retrocyclin or other test peptide. These cells were maintained in RPMI containing 10% FCS supplemented with 2 mM glutamine, 100 U of penicillin/ml, 10 μg of streptomycin/ml, and 50 U of interleukin 2/ml (R10-50 media).
# The p24 assay results shown in FIG. 9 are on a logarithmic scale. A horizontal reference line that passes through 100 on the ordinate scale corresponds to […] of p24 antigen. Results from 3 experiments (each performed with PBMC from a different donor) are shown.
# [2] = tested on: HIV-1 strain IIIB; assay: HIV-1 IIIB infection of CD4+ PBMC, p24 antigen ELISA; assay type: cell-based; details: CD4+ PBMC, IIIB (X4), peptide 10-20 μg/ml
# Experimental: FIG. 5A-C. Anti-HIV-1 activity of retrocyclin. Two strains of HIV-1 and two types of human target cells were used. The IIIB strain is T-cell tropic (X4) and utilizes the CXCR4 co-receptor for entry; the JR-CSF strain is M-tropic (R5) and uses CCR5 for entry. PBMC signifies CD4^+-selected peripheral blood mononuclear cells. […] (A) Two concentrations of retrocyclin (2 μg/ml, 20 μg/ml), 20 μg/ml of the Rhesus circular defensin “RTD-1”, and 20 μg/ml of a horseshoe crab-derived peptide “T140”, reported to only prevent X4 infections, were tested in antiviral assays of against strain IIIB in H9 cells (n=2-6 per peptide; error bars indicate SEM). (B) To confirm our results with primary human cells, similar assays were performed utilizing IIIB virus and CD4^+ PBMC or (C) JR-CSF virus and CD4^+ PBMC. […] Average of duplicate experiments are reported for studies with PBMCs. Assay sensitivity=10 pg/ml.
# as §1, with “After approximately 7 days, when 98% of these cells co-expressed CD3 and CD4, they were infected with HIV-1 with or without retrocyclin or other test peptide.” left out
# Examining the effect of adding retrocyclin at various times pre- and post-HIV-1 infection. […] Primary CD4^+ PBMC were incubated with HIV-IIIB (FIG. 6) or HIV-JR-CSF for 3 hours in the presence or absence of 20 μg/ml retrocyclin. The cells were subsequently washed in media, and incubated an additional 9 days. Retrocyclin (20 μg/ml) was added back to some of the cultures at time points specified in FIG. 6 and infection was monitored by p24 ELISA as previously described. […]
# [3] = tested on: HSV-2; assay: HSV inactivation microplate assay on ME-180 cells (MTT); assay type: cell-based; details: 2-50 μg/ml, 2 hrs with virus, 72 hrs culture
# Experimental: FIG. 14. Inactivation of HSV-1 and HSV-2 by retrocyclin and RC-101. Retrocyclin (left panel) and RC-101 (right panel) at the indicated concentrations were incubated with herpes simplex virus, type 1 (HSV-1) or HSV-2 for 2 hrs and then added to ME-180 cell monolayers. Cells were incubated at 37° C. for 72 hrs, and cytotoxicity was measured with an MTT kit.
# Some retrocyclins are slightly active against herpes simplex virus (HSV). To determine if the activity of retrocyclin against HIV-1 was specific or representative of a more global antiviral effect, it was tested its ability to prevent HSV infection in vitro. A quantitative microplate assay was used to screen retrocyclin and retrocyclin-congeners for their ability to inactivate HSV type 1 (HSV-1) and HSV-2. The assay utilized small amounts of peptide and simultaneously evaluated for peptide-induced cytotoxicity. In brief, final peptide concentrations of 2-50 μg/ml were incubated with virus stocks for 2 hrs and added directly to ME-180 human cervical carcinoma cells. Cultures were incubated at 37° C. for 72 hrs and cytotoxicity was measured using a 3-(4,5-dimethylthiazon-2-yl)-2,5-diphenyltetrazolium bromide (MTT) cell proliferation kit (Boehringer-Mannheim, Germany). Calculations to assess antiviral activity and compute “percent protection” are delineated in (90).
# [4] = tested on: primary HIV-1 isolates; details: previous assays; included as negative control
# Source text: Viral isolates. Primary HIV-1 isolates were obtained from Institutional Review Board-approved Centers for Disease Control and Prevention (CDC) Studies or from the National Institutes of Health Research and Reference Reagent Program and World Health Organization collaborative network. Detailed characteristics of the CDC isolates, including subtype determination based on the envelope region, and co-receptor usage using GHOST cell lines have been described elsewhere. For viruses obtained from the NIH Research and Reference Reagent Program, the reported subtype and co-receptor data were used as supplied. Viral stocks were generated by infecting CD8-depleted normal human peripheral blood mononuclear cells. After filtration through 0.22-μm filters, aliquots of the stocks were stored at −70° C. until used.
# Reporter gene-based viral replication assay. JC53-BL cells, an HIV-1 reporter cell line derived from HeLa cells that expresses high levels of CD4 and the HIV co-receptors CXCR4 and CCR5, were a gift of Tranzyme Inc. (Birmingham, Ala.). The JC53-BL cells contain cassettes for luciferase and β-galactosidase, each driven by the HIV-1 LTR. HIV infection (tat production) can be detected either by measuring luciferase activity or by counting blue foci after staining the cells with “X-Gal” (5-Bromo-4-chloro-3-indolyl β-D-galactopyranoside), as described elsewhere in detail. The JC53-BL cells were maintained in Dulbecco's modified Eagle medium supplemented with 10% fetal calf serum. (HyClone, Logan, Utah), 2 mM glutamine (Gibco), 100 units per ml penicillin G and 100 μg/ml streptomycin (GIBCO™, Invitrogen Corp., San Diego, Calif.). Viral titers were determined by adding serial dilutions of the virus stocks, in triplicate, to wells containing 20,000 JC53-BL cells, after supplementing the above medium with 40 μg/ml DEAE (diethylaminoethyl)-dextran. After a 48 hour incubation at 37° C. in 5% CO2, the cells were fixed and stained for β galactosidase, and the blue foci were counted with a light microscope. Multiplicity of infection (MOI) values were taken from the infectious unit data.
# In vitro infections were carried out in the presence or absence of θ-defensin peptides. Briefly, JC53-BL cells were harvested from T-150 flasks approximately 18 hours prior to starting the assay with 0.1 mM EDTA in 0.017 M PBS, pH 7.4. The cells were washed and transferred to sterile white 96-well plates (Thermo Labsystems, Franklin, Mass.) at a density of 20,000 cells in 50 μl of medium. […] After this 3-hour preincubation with peptides, viruses were added in media containing 40 μg/ml DEAE-dextran. The final volume was 200 μl per well, and the multiplicity of infection (viruses/cell) ranged from 0.009 to 0.65. After the plates had incubated at 37° C. in 5% CO2 for 48 hours, luciferase activity was measured with the Steady-Glo Luciferase Assay System (Promega, Madison, Wis.), using the manufacturer's lysis protocol. Relative light intensity was measured with a Tecan luminometer running Magellan software (Tecan, Research Triangle Park, N.C.) and reported as relative light units (RLU). Each plate contained three sets of quadruplicate controls: media-only (background), virus-only (peptide-free), and recombinant luciferase. Samples were run in duplicate and the % inhibition was calculated from the mean values using the formula: % Inhibition=1−(average RLU peptide+virus wells/average RLU virus only wells)×100.
# Fifty-percent inhibitory concentration values (IC50) were calculated using the predicted exponential growth function in Microsoft Excel, which uses known x-y values to estimate a given x value (in this case concentration of peptide) that would correspond to a given y value (in this case IC50). Statistical comparisons were by paired t-tests, unless otherwise noted.
# [5] = tested on: HIV-1 strain IIIB; assay: HIV-1 IIIB infection of H9 cells, p24 antigen ELISA; assay type: cell-based; details: H9 cells, IIIB (X4), peptide 10-20 μg/ml
# Experimental: FIG. 1. Circular minidefensins reduce HIV-1 infection of H9 cells. HIV-I strain IIIB (MOI=10^−2) was incubated with 2.5×10^5 H9 cells in the presence or absence of 20 μg/ml RTD-1, RTD-2 or RTD-3. p24 antigen release was monitored by ELISA on days 3, 6, and 9. Assay sensitivity=10 pg/ml.
# Immortalized CD4^+ H9 cells, which are permissive for infection with this strain, were maintained in RPMI supplemented with 10% heat-inactivated fetal calf serum (FCS), 10 mM HEPES, 2 mM glutamine, 100 U of penicillin/ml, and 10 μg of streptomycin/ml (R10 media). Cells (2.5×10^5/100 μl) were incubated with virus (multiplicity of infection (MOI)=10^−2) in the presence or absence of 20 μg/ml RTD-1, RTD-2 or RTD-3 for 3 hrs at 37° C./5% CO2. The cells were washed in R10 media, seeded in 48-well tissue culture plates in 1 ml R10 media, and incubated at 37° C./5% CO2 for 9 days. Aliquots of cell supernatant were removed at the specified time points and analyzed by a sensitive ELISA (DuPont NEN) that quantitates p24 antigen of HIV-1. The three circular rhesus minidefensins were similarly active, inhibiting HIV-1 by 100-1000 fold by 9 days post-inoculation (note the logarithmic scale).
# as §1
# Mature retrocyclin was prepared by a three-step process.
Molecule,inhibition of HIV-1 replication (p24) [1],inhibition of HIV-1 replication (p24) [2],protection against HSV-2 [3],anti-HIV activity [4],inhibition of HIV-1 replication (p24) [5]
"I6Y-Retrocyclin (cyclo(GICRCYCGRGICRCICGR); disulfide (positions not given here); ring closure inferred; not fully specified (bridges)) [RC-102, cyclic …]",considerable ability to protect cells; also recorded: substantial activity,either inactive or only modestly active; also recorded: relatively ineffective,less antiviral than retrocyclin,,
I15Y-Retrocyclin (cyclo(GICRCICGRGICRCYCGR); disulfide (positions not given here); ring closure inferred; not fully specified (bridges)) [RC-103],considerable ability to protect cells; also recorded: substantial activity,either inactive or only modestly active; also recorded: relatively ineffective,less antiviral than retrocyclin,,
"I2Y-Retrocyclin (cyclo(GYCRCICGRGICRCICGR); disulfide (positions not given here); ring closure inferred; not fully specified (bridges)) [RC-104, cyclic …]",considerable ability to protect cells; also recorded: substantial activity,relatively ineffective,,,
R4Y-Retrocyclin [RC-106],lack of efficacy,either inactive or only modestly active; also recorded: lack of efficacy,,little or no anti-HIV activity,
R9Y-Retrocyclin [RC-107],lack of efficacy,lack of efficacy,,,
B1,,,,,protective to a lesser extent than retrocyclin
B2,,,,,protective to a lesser extent than retrocyclin
